# Source: ChEMBL document CHEMBL4270663, “6-Benzhydryl-4-amino-quinolin-2-ones as Potent Cannabinoid Type 1 (CB1) Receptor Inverse Agonists and Chemical Modifications for Peripheral Selectivity” (J Med Chem, 2018)
# Calls of active or inactive are those of the source. The calls are words filed in the database; no cut-off is given here.
# Experiments:
# [1] = Drug uptake in plasma of diet-induced obese C57BL/6J mouse model at 3 mg/kg, po administered as daily dose measured at 2 hrs post last dose on day 1; format: ADME, organism-based
# Mus musculus [2] = experiment: In vivo receptor occupancy at CB1 receptor in brain of diet induced obese C57BL/6J mouse model at 30 mg/kg, po administered as daily dose for 5 days measured 10 mins post last dose in presence of [3H]-CP-55940 relative to control; format: functional
# Mus musculus [3] = experiment: Induction of insulin sensitivity in diet induced obese C57BL/6J mouse model at 3 to 10 mg/kg, po administered as daily dose measured at day 26 post last dose; format: functional, organism-based
# [4] = Drug uptake in plasma of diet-induced obese C57BL/6J mouse model at 3 mg/kg, po administered as daily dose measured at 2 hrs post last dose on day 22; format: ADME, organism-based
# [5] = Drug uptake in brain of diet-induced obese C57BL/6J mouse model at 1 mg/kg, po administered as daily dose measured at 2 hrs post last dose on day 2; format: ADME, organism-based; conditions: in vivo
# Cytochrome P450 2C9 = Cytochrome P450 2C9 (Homo sapiens, UniProt P11712); experiment: Inhibition of CYP2C9 in human liver microsomes using tolbutamide as substrate after 10 to 30 mins by LC/MS analysis; format: ADME
# Sequence of Cytochrome P450 2C9 (P11712 whole entry): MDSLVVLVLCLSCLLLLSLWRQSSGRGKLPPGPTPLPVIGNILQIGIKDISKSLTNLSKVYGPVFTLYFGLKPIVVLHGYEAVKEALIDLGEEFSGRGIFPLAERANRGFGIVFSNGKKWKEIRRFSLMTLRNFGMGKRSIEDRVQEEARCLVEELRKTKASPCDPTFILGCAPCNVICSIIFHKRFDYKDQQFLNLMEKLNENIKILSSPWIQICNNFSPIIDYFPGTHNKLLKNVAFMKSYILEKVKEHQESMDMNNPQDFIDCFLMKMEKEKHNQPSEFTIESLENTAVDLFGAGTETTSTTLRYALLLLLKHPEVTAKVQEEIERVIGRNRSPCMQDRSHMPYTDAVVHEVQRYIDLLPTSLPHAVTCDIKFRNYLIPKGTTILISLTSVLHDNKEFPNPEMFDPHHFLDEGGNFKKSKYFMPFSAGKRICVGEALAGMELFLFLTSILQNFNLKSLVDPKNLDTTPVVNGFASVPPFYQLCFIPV
# [6] = Drug uptake in plasma of MDR1a knockout CF-1 mouse at 20 mg/kg, po measured at 2 hrs post last dose on day 1; format: ADME, organism-based
# Cannabinoid receptor 1 [7] = target: T1, Cannabinoid receptor 1 (Homo sapiens, UniProt P21554); experiment: Inverse agonist activity at human CB1 receptor expressed in HEK293 cells assessed as inhibition of forskolin-induced cAMP accumulation after 30 mins by HTRF assay; format: functional, cell-based
# T1 sequence (P21554 whole entry): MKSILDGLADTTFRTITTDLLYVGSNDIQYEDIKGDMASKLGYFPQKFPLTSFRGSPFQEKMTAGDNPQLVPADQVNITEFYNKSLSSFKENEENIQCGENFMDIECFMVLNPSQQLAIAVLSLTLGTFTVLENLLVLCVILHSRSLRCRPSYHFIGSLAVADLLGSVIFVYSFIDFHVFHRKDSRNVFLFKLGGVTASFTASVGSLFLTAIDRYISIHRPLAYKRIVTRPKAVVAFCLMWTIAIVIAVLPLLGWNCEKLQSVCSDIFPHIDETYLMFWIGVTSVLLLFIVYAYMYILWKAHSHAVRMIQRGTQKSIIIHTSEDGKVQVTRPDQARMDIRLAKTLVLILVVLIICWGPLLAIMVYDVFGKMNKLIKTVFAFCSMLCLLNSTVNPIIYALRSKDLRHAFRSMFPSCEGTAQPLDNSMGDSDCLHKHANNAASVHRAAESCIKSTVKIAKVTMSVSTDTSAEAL
# [8] = Ratio of drug level in brain to plasma of diet-induced obese C57BL/6J mouse model at 1 mg/kg, po administered as daily dose measured at 2 hrs post last dose on day 23; format: ADME, organism-based; conditions: read-out: BPR
# [9] = Clearance in C57BL/6J mouse at 5 mg/kg, iv or 20 mg/kg, po administered via gavage by LC-MS/MS analysis; format: ADME, organism-based; conditions: in vivo
# [10] = Drug uptake in C57BL/6J mouse plasma at 20 mg/kg, po measured after 4 hrs; format: ADME, organism-based
# Cannabinoid receptor 1 [11] = target: T1, Cannabinoid receptor 1; experiment: biochemical; format: cell-based, CHO
# Mus musculus [12] = experiment: Antiobesity activity in diet induced obese C57BL/6J mouse model assessed as decrease in liver fat content at 3 to 10 mg/kg, po administered as daily dose measured at day 26 post last dose; format: functional, organism-based
# [13] = Half life in C57BL/6J mouse at 20 mg/kg, po administered via gavage by LC-MS/MS analysis; format: ADME, organism-based; conditions: in vivo
# [14] = Ratio of drug level in brain to plasma of wild type CF-1 mouse at 20 mg/kg, po; format: ADME, organism-based; conditions: read-out: BPR
# [15] = Protein binding in plasma (unknown origin); format: ADME, cell-free; conditions: unidentified, read-out: PPB
# [16] = Drug uptake in plasma of wild type CF-1 mouse at 20 mg/kg, po measured at 2 hrs post last dose on day 1; format: ADME, organism-based
# [17] = Drug uptake in brain of wild type CF-1 mouse at 20 mg/kg, po measured at 2 hrs post last dose on day 2; format: ADME, organism-based; conditions: in vivo
# [18] = Volume of distribution at steady state in C57BL/6J mouse at 5 mg/kg, iv or 20 mg/kg, po administered via gavage by LC-MS/MS analysis; format: ADME, organism-based; conditions: in vivo, read-out: Vdss
# [19] = Cmax in C57BL/6J mouse at 20 mg/kg, po administered via gavage by LC-MS/MS analysis; format: ADME, organism-based; set-up: dose 20 mg/kg, route oral; conditions: in vivo
# Mus musculus [20] = experiment: Antiobesity activity in diet induced obese C57BL/6J mouse model assessed as decrease in food intake at 3 to 10 mg/kg, po administered as daily dose measured every day for 5 days and continuing every other day till day 17; format: functional, organism-based
# [21] = Drug uptake in brain of diet-induced obese C57BL/6J mouse model at 1 mg/kg, po administered as daily dose measured at 2 hrs post last dose on day 23; format: ADME, organism-based; conditions: in vivo
# [22] = Metabolic stability in rat liver microsomes assessed as parent compound remaining at 1 uM after 10 mins in presence of NADPH; format: ADME, microsome; conditions: read-out: Stability
# Cytochrome P450 1A2 = target: T2, Cytochrome P450 1A2 (Homo sapiens, UniProt P05177); experiment: Inhibition of CYP1A2 in human liver microsomes using phenacetin as substrate after 10 to 30 mins by LC/MS analysis; format: ADME
# T2 sequence (P05177 whole entry): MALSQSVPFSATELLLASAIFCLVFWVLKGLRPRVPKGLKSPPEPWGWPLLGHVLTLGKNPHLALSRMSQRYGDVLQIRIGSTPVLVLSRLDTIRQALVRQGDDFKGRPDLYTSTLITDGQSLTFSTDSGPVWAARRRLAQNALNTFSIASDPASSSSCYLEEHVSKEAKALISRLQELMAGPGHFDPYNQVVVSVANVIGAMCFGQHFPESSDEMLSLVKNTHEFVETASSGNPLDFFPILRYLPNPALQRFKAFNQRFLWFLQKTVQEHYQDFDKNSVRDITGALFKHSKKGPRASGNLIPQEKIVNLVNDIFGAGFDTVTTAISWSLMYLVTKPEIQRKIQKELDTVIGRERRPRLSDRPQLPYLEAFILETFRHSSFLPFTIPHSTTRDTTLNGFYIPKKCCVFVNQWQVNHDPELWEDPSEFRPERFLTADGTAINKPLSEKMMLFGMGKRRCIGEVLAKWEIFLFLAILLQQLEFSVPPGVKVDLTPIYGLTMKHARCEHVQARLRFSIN
# [23] = Ratio of drug level in brain to plasma of diet-induced obese C57BL/6J mouse model at 10 mg/kg, po administered as daily dose measured at 2 hrs post last dose on day 23; format: ADME, organism-based; conditions: read-out: BPR
structure (smiles),measurement,setting,value
O=c1cc(NC2CCN(S(=O)(=O)C(F)(F)F)CC2)c2cc(C(c3ccc(Cl)cc3)c3ccc(Cl)cc3)ccc2[nH]1,concentration at 2 h,[1],1.24 µM
same,Occ,Mus musculus [2],71.6%
same,Activity,Mus musculus [3],Active
same,concentration at 2 h,[4],2.55 µM
same,Drug uptake,[5],< 4 nmol/g
same,IC50,Cytochrome P450 2C9,> 10000 nM
same,concentration at 2 h,[6],4.95 µM
same,EC50,Cannabinoid receptor 1 [7],8.2 to 8.3 nM
same,Kp at 2 h,[8],0.072
same,clearance,[9],2.21 mL/min/kg
same,concentration at 4 h,[10],1.94 µM
same,IC50,Cannabinoid receptor 1 [11],1.3 nM
same,Activity,Mus musculus [12],Active
same,half-life,[13],7.26 h
same,Kp,[14],0.027
same,fraction unbound,[15],0.0001
same,concentration at 2 h,[16],3.92 µM
same,Drug uptake,[17],0.104 nmol/g
same,Vd,[18],0.456 L/kg
same,Cmax,[19],3.7 µM
same,Activity,Mus musculus [20],Active
same,Drug uptake,[21],0.06 nmol/g
same,"remaining at 10 min, 1 µM",[22],100%
same,IC50,Cytochrome P450 1A2,> 10000 nM
same,Kp at 2 h,[23],0.038
